Target: T1, human S1P1 receptor (Homo sapiens, UniProt P21453)
T1 construct: expressed in transfected cells; membranes used
Test: GTP γ35S binding assay for S1P1 activity
Format: biochemical
Settings: for % S1P1 STIMULATION @ 5 μM (%): GTPγ^35S binding, compound at 5 μM; for EC50: membranes of cells stably expressing the S1P1 receptor, test compounds 0.08 to 5,000 nM, read-out: S1P1 GTPγ^35S EC50
Experimental: Compounds were synthesized and tested for S1P1 activity using the GTP γ^35S binding assay. These compounds may be assessed for their ability to activate or block activation of the human S1P1 receptor in cells stably expressing the S1P1 receptor.
GTP γ^35S binding was measured in the medium containing (mM) HEPES 25, pH 7.4, MgCl2 10, NaCl 100, dithitothreitol 0.5, digitonin 0.003%, 0.2 nM GTP γ^35S, and 5 μg membrane protein in a volume of 150 μl. Test compounds were included in the concentration range from 0.08 to 5,000 nM unless indicated otherwise. Membranes were incubated with 100 μM 5′-adenylylimmidodiphosphate for 30 min, and subsequently with 10 μM GDP for 10 min on ice. Drug solutions and membrane were mixed, and then reactions were initiated by adding GTP γ^35S and continued for 30 min at 25° C. Reaction mixtures were filtered over Whatman GF/B filters under vacuum, and washed three times with 3 mL of ice-cold buffer (HEPES 25, pH7.4, MgCl2 10 and NaCl 100). Filters were dried and mixed with scintillant, and counted for ^35S activity using a β-counter. Agonist-induced GTP γ^35S binding was obtained by subtracting that in the absence of agonist. Binding data were analyzed using a non-linear regression method. In case of antagonist assay, the reaction mixture contained 10 nM S1P in the presence of test antagonist at concentrations ranging from 0.08 to 5000 nM.

T1 sequence (P21453 whole entry): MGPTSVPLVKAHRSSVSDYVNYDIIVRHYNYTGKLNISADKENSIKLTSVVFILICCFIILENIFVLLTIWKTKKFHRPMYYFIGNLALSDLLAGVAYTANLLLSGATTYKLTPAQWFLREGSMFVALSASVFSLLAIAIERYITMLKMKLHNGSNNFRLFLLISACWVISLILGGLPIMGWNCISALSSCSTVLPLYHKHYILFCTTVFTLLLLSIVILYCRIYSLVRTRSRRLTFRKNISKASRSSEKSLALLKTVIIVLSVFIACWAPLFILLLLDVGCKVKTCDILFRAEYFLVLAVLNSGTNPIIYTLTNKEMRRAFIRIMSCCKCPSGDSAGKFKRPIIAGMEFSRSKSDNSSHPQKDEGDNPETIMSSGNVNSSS

% S1P1 STIMULATION @ 5 μM (%) | EC50 [µM] | Compound
76 | 1.42 | CC(C)Oc1ccc(-c2nc(-c3ccccc3-c3cccc(OCCCO)c3)no2)cc1C#N [Compound 1, 5-{3-[3′-(3-Hydroxy-propoxy)-biphenyl-2-yl]-[1,2,4]oxadiazol-5-yl}-2-isopropoxy-benzonitrile]
96 | 0.552 | O=C(O)CNCCCOc1cccc(-c2ccccc2-c2noc(-c3ccc(-c4cccc(F)c4)c(C(F)(F)F)c3)n2)c1 [Compound 2, (3-{2′-[5-(3′-Fluoro-2-trifluoromethyl-biphenyl-4-yl)-[1,2,4]oxadiazol-3-yl]-biphenyl-3-yloxy}-propylamino)acetic acid]
85 | 0.082 | CC(C)Oc1ccc(-c2nc(-c3ccccc3-c3cccc(OCCCNCC(=O)O)c3)no2)cc1C#N [Compound 3, (3-{2′-[5-(3-Cyano-4-isopropoxy-phenyl)-[1,2,4]oxadiazol-3-yl]-biphenyl-3-yloxy}-propylamino)-acetic acid]

From US8273776B2, “Biphenyl oxadiazole derivatives as sphingosine-1-phosphate receptors modulators” (Allergan, Inc, priority 2010, dated 2012)
